Data reported in US20100126880A1 (priority 2006, published 2010).

Test system: dsDNA
Text: Intercalation properties of EDOT-ND-Os were further studied by competitive displacement assay.

N[3-(imidazol-1-yl)propyl]-N′-[8-((2,3-dihydrothieno[3,4-b][1,4]dioxin-3-yl)methoxy)-3,6-dioxaoctyl]-1,4,5,8-naphthalenetetracarboxydiimide complex with Os(bpy)2Cl2 [EDOT-ND-Os]
binding constant: 8×10^4
